Measurements: patent publication US6663881B2 (priority 1993, dated 2003)

Key:
[1] = system: swine coronary arteries traumatized by embolectomy or over-sized PTCA balloon; assay: Swine coronary artery study, MIC catheter infusion, morphometry at 4 weeks (Table 15); assay type: in vivo; details: 8.0 μg/ml
Procedure: Swine coronary arteries were also traumatized by embolectomy or over-sized PTCA balloon, and then 8-16 ml of cytochalasin B at 8.0 μg/ml was infused into the arterial wall with a MIC catheter to achieve a therapeutic dose. Controls included a diluent control and a traumatized untreated control, and all animals were sacrificed 4 weeks after intervention and coronary arteries were fixed by perfusion. Morphometry was performed on selected sections from proximal, treated and distal segments of coronary arteries (Table 15).

[2] = Biodistribution of cytochalasin B after i.p. injection (HPLC); assay type: in vivo, mice; details: 50 mg/kg i.p.
Procedure: Biodistribution of Cytochalasin B. To determine the biodistribution of cytochalasin B, mice were injected (i.p.) with 50 mg/kg cytochalasin B. Control mice were injected with DMSO/Tween 20/carboxymethyl cellulose (“vehicle”). The mice were sacrificed at 3, 12, 24 and 72 hours after cytochalasin B or vehicle administration. Organs were removed, homogenized, extracted and the amount of cytochalasin B in tissues quantitated by HPLC. About 75% of the cytochalasin B remained in the peritoneal cavity or at the injection site.

[3] = system: balloon traumatized pig femoral arteries; assay: Biological stenting of balloon traumatized pig femoral arteries (luminal area morphometry); assay type: in vivo
Procedure: Pig femoral arteries were traumatized as described in Example 7, and then treated with cytochalasin B. About 1.5 to about 2 ml of cytochalasin B at 0.1 μg/ml was infused into portions of the artery that had been separated from other portions by ligatures. The artery was then pressurized for 3 minutes and the fluid aspirated. Approximately 8 to about 30 lambda of the solution is retained in the interstitial space surrounding the cells in the tunica media. Ten femoral arteries (two arteries obtained from each of the 5 pigs that were treated according to the single dose protocol described in Example 7) were then evaluated histologically at 4 days or 3 weeks after cytochalasin B adminstration. The maximal luminal area of each artery was measured and calculated from digitized microscopic images by a BQ System IV computerized morphometric analysis system (R & M Biometrics, Inc., Nashville, Tenn.). This experiment was repeated with 5 additional pigs (two arteries per pig; cytochalasin B dose=0.1 μg/ml, applied for 3 minutes at 1 atm pressure; same time points). The data obtained from the two experiments were combined.
The luminal area of the traumatized and cytochalasin B-treated segments of the arteries were also compared to the luminal area of the normal, untreated region of the femoral artery proximal to the test area. […]

[4] = system: Vascular smooth muscle (BO54) cells; assay type: cell-based, baboon
[5] = system: balloon traumatized swine coronary arteries; assay: Dose-response study of balloon traumatized swine coronary arteries (Table 14, morphometry); assay type: in vivo
[6] = system: Vascular smooth muscle cells (BO54); assay: Scratch-migration assay; assay type: cell-based, baboon; set-up: key: −=no migration; +1=minimal; +2=mild; +3=moderate; +4=marked (maximum density; limit of cell contact inhibition) migration
Procedure: Scratch assays to determine the extent of smooth muscle cell migration inhibition by cytochalasin B were performed in accordance with the following protocol:
Vascular smooth muscle cells (BO54) were derived from explants of baboon aortic smooth muscle, as described in Example 10. The cells were grown in flat bottom, six well tissue culture plates, which hold about 5 ml of medium. The vascular smooth muscle cells were plated at 200,000 cells/well and placed at 37° C. in a humidified 5% CO2 incubator for 18 hours. The wells were then scratched with a sterile portion of a single edge razor blade that was held by clamp or pliers and was brought aseptically into contact with the bottom of the well at a 90° angle. The cells from a small area along the scratch were removed by a sterile cotton tipped applicator while the blade was in contact with the bottom of the well. After incubation, the presence of cells in the “scratched” area is indicative of cell migration across the scratch line.
Briefly, a stock solution of cytochalasin B (Sigma Chemical Co.) in dimethyl sulfoxide (DMSO) at 1 mg/ml was prepared. Test dilutions of cytochalasin B or control medium were added. Each experiment included two sets of plates:
A set: Test agent exposure for 1, 3, 6, 8 and 10 days only; and
B set: Test agent exposure for 1, 3, 6, 8 and 10 days, followed by a seven day recovery time with control medium.
Both sets of plates were fixed (10% formalin in PBS) and stained (0.02% crystal violet) at the end of the timed exposures. Test concentrations for cytochalasin B were 1, 0.1 and 0.01 μg/ml, and a negative medium control was included. Fresh medium and drug were supplied 3 times per week.
In this Table, “M” indicates Migration Grade, wherein −=no migration; +1=minimal; +2=mild; +3=moderate; and +4=marked (maximum density; limit of cell contact inhibition) migration of vascular smooth muscle cells into the cleared area adjacent to the scratch. In this Table, “T” denotes a morphological Toxicity Grade, wherein −=no toxicity; +1=minimal; +2=mild; +3=moderate; and +4=marked toxicity. The migration results are expressed as “Grade in the Cleared Area of the Well/Grade in an Undisturbed Region of the Well.” The toxicity values represent a grade for all cells in each well.

[7] = system: balloon traumatized left carotid artery; assay: Inter-arterial infusion of crystalline cytochalasin B in balloon traumatized rat carotid artery; assay type: in vivo, Sprague-Dawley rats
Procedure: Another study employed twenty, male, Sprague-Dawley rats. The rats underwent balloon trauma to their left carotid artery, followed by inter-arterial infusion of a solution containing 1 mg crystalline cytochalasin B in […] vehicle (Hanks sterile salt solution with 0.5% Cremophor) or a diluent (saline) control. Animals were sacrificed immediately after infusion, and 2, 4, 7 and 14 days post-trauma and infusion. Post-sacrifice, the left and the right (control) carotid arteries were removed. Samples of arteries were obtained for quantitation of ^3H-cytochalasin B by oxidation and scintillation counting, histopathology, autoradiography and vascular morphometry. Histopathology documented uniform, circumferential balloon trauma in the arterial wall of the left carotid arteries.

Compound: C=C1[C@@H](C)[C@H]2[C@H](Cc3ccccc3)NC(=O)[C@]23OC(=O)/C=C/[C@H](O)CCC[C@@H](C)C/C=C/[C@H]3[C@@H]1O [cytochalasin B]
- arterial remodeling (area bounded by the external elastic lamina) [1]: trend toward beneficial arterial remodeling
- luminal area [1]: did not result in a statistically significant increase in luminal area
- organ with the highest amount [2]: liver
- lumen area of test region vs normal control segment of the same artery ([3]; 0.1 μg/ml for cytochalasin B): approximately two times as large
- luminal area vs other test agents or controls ([3]; 0.1 μg/ml, 4 day and 3 week post-treatment): larger luminal area
- artery lumen areas over three weeks vs diluent control ([3]; 0.1 μg/ml, two way analysis of variance): statistically significant difference (p<0.05)
- toxicity to the vascular smooth muscle cells ([3]; 10 μg/ml dose, dose response study): appeared to be toxic
- myofilament reformation (electron micrographs) ([3]; about 0.1 to about 10.0 μg/ml): myofilament reformation was retarded
- constriction or vascular remodeling ([3]; pig, in vivo): did not undergo the constriction or chronic geometrical (vascular) remodeling
- incidence of mural microthrombi ([3]; vs untreated balloon traumatized arteries): decreased
- MED, DNA assay ([4]; 5 minute exposure): 10 µg/mL
- DNA synthesis inhibition compared with protein synthesis inhibition ([4]; 24 hour assays, 5% FBS, FIGS. 10A-10D): to a greater extent than they inhibited protein synthesis
- MED, DNA synthesis assay ([4]; 24 hour exposure): 0.1 µg/mL
- coronary luminal area ([5]; 0.1, 1.5 or 10.0 μg/ml, three weeks after intervention): sustained arterial dilation
- myocardial or arterial lesions (histology) ([5]; in vivo): did not result in myocardial or arterial lesions
- Toxicity Grade ([6]; 7-day Recovery Post Exposure, Day 1, 1.0 μg/mL): +2
- Toxicity Grade ([6]; 7-day Recovery Post Exposure, Day 3, 1.0 μg/mL): +1
- Toxicity Grade ([6]; 7-day Recovery Post Exposure, Day 6, 1.0 μg/mL): +3
- Toxicity Grade ([6]; 7-day Recovery Post Exposure, Day 8, 1.0 μg/mL): +3
- Toxicity Grade ([6]; 7-day Recovery Post Exposure, Day 10, 1.0 μg/mL): +3
- Toxicity Grade ([6]; Continuous Exposure, Day 1, 1.0 μg/mL): +3
- Toxicity Grade ([6]; Continuous Exposure, Day 3, 0.1 μg/mL): +1
- Toxicity Grade ([6]; Continuous Exposure, Day 3, 1.0 μg/mL): +3
- Toxicity Grade ([6]; Continuous Exposure, Day 6, 0.1 μg/mL): +1
- Toxicity Grade ([6]; Continuous Exposure, Day 8, 0.1 μg/mL): +1
- Toxicity Grade ([6]; Continuous Exposure, Day 10, 0.1 μg/mL): +1
- amount present over the treated length of artery ([7]; day 0): approximately 8 ug
- amount present over the treated length of artery ([7]; day 2): less than 2 ng
- crystals by autoradiography ([7]; day 4): not detectable by autoradiography
- mean luminal area and neointimal area vs diluent control ([7]; five treated rats): higher mean luminal area and a smaller neointimal area
- neointima formation vs diluent treated rats ([7]; morphometric analysis): no statistically significant reduction in neointima formation
